Results from patent publication US20250195530A1, “POLQ INHIBITORS” (ASTRAZENECA AB, priority 2022, published 2025).
Where two headings read alike, the source gives them in different places.

What was measured:
DLD-1 BRCA2−/− cells = experiment: Homologous recombination synthetic lethal inhibition of proliferation, DLD-1 BRCA2-/- (Cell Titre Glo 3D); assay type: cell-based; conditions: Homo sapiens, read-out: POLQ PD Prolif Lumin (converted)
Procedure, shortened: (§1)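 Cells are seeded in RPMI 1640 (phenol red free, 10% FBS, GlutaMAX) onto pre-dosed compound (10 μM to 0.51 nM, three-fold). Plates are incubated at 37 °C, and medium plus compound are refreshed on day 6. Viability is read by CellTiter-Glo 3D at day 7 (DLD-1) or day 12 (DLD-1 BRCA2−/−), and the IC50 is fitted.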

DLD-1 cells = experiment: Inhibition of proliferation, DLD-1 BRCA2 wt control (Cell Titre Glo 3D); assay type: cell-based; conditions: Homo sapiens, read-out: POLQ PD Prolif Lumin (converted)
Procedure, shortened: as §1

[1] = DLD-1, first proliferation column (c5), DLD-1 BRCA2-/-
[2] = DLD-1, second proliferation column (c6), DLD-1 BRCA2 wt control
[3] = DLD-1, DLD-1 BRCA2-/- proliferation, column head only partly shown
[4] = DLD-1, DLD-1 BRCA2 wt control proliferation, column head only partly shown

IC50 (DLD-1 cells; [2]) [µM] | IC50 (DLD-1 cells; [4]) [µM] | Structure (SMILES) | IC50 (DLD-1 BRCA2−/− cells; [1]) [nM] | IC50 (DLD-1 BRCA2−/− cells; [3]) [nM]
> 10 | – | Cc1cnc(Cn2c(-c3cccc(OCCCN(C)C)c3Cl)nc3c(OC4(C)CC4)ncnc32)s1 [Example T149, 3-(2-chloro-3-(6-(1-methylcyclopropoxy)-9-((5-methylthiazol-2-yl)methyl)-9H-purin-8-yl)phenoxy)-N,N-dimethylpropan-1-amine] | 316 | –
> 10 | – | Cc1ccnc(Cn2c(-c3ccc(O[C@@H]4CCNC4=O)cc3Cl)nc3c(OC4(C)CC4)ncnc32)c1 [Example T186, (R)-3-(3-chloro-4-(6-(1-methylcyclopropoxy)-9-((4-methylpyridin-2-yl)methyl)-9H-purin-8-yl)phenoxy)pyrrolidin-2-one] | 251 | –
> 10 | – | Cc1ccnc(Cn2c(-c3ccc(OCC4(O)CC4)cc3Cl)nc3c(OC4(C)CC4)ncnc32)c1 [Example T197, 1-((3-chloro-4-(6-(1-methylcyclopropoxy)-9-((4-methylpyridin-2-yl)methyl)-9H-purin-8-yl)phenoxy)methyl)cyclopropan-1-ol] | 251 | –
– | > 10 | Cc1ccnc(Cn2c(-c3ccc(OCCN(C)C)cc3Cl)nc3c(OC4(C#N)CC4)ncnc32)c1 [Example T203, 1-((8-(2-chloro-4-(2-(dimethylamino)ethoxy)phenyl)-9-((4-methylpyridin-2-yl)methyl)-9H-purin-6-yl)oxy)cyclopropane-1-carbonitrile] | – | 398
– | > 10 | CC1(Oc2ncnc3c2nc(-c2ccc(OCCN4CC(O)C4)cc2Cl)n3Cc2cc(Cl)ccn2)CC1 [Example T206, 1-(2-(3-chloro-4-(9-((4-chloropyridin-2-yl)methyl)-6-(1-methylcyclopropoxy)-9H-purin-8-yl)phenoxy)ethyl)azetidin-3-ol] | – | 126
– | > 10 | Cc1ccnc(Cn2c(-c3ccc(CC(=O)N(C)C)cc3Cl)nc3c(OC4(C)CC4)ncnc32)c1 [Example T210, 2-(3-chloro-4-(6-(1-methylcyclopropoxy)-9-((4-methylpyridin-2-yl)methyl)-9H-purin-8-yl)phenyl)-N,N-dimethylacetamide] | – | 316
– | > 10 | CN(C)CCCOc1ccc(-c2nc3c(OC4(C)CC4)ncnc3n2Cc2cc(Cl)ccn2)c(F)c1 [Example T231, 3-(4-(9-((4-chloropyridin-2-yl)methyl)-6-(1-methylcyclopropoxy)-9H-purin-8-yl)-3-fluorophenoxy)-N,N-dimethylpropan-1-amine] | – | 251
– | > 10 | Cc1ccnc(Cn2c(-c3ccc(OCCCS(C)(=O)=O)cc3Cl)nc3c(OC4(C)CC4)ncnc32)c1 [Example T234, 8-(2-chloro-4-(3-(methylsulfonyl)propoxy)phenyl)-6-(1-methylcyclopropoxy)-9-((4-methylpyridin-2-yl)methyl)-9H-purine] | – | 200
– | > 10 | Cc1ccnc(Cn2c(-c3ccc(CCN(C)C)cc3Cl)nc3c(OC4(C)CC4)ncnc32)c1 [Example T236, 2-(3-chloro-4-(6-(1-methylcyclopropoxy)-9-((4-methylpyridin-2-yl)methyl)-9H-purin-8-yl)phenyl)-N,N-dimethylethan-1-amine] | – | 251
– | > 10 | Cc1ccnc(Cn2c(-c3cccc(OCCN(C)C)c3Cl)nc3c(OC4(C)CC4)ncnc32)c1 [Example T237, 2-(2-chloro-3-(6-(1-methylcyclopropoxy)-9-((4-methylpyridin-2-yl)methyl)-9H-purin-8-yl)phenoxy)-N,N-dimethylethan-1-amine] | – | 50.1
– | > 10 | CNCCCOc1ccc(-c2nc3c(OC4(C)CC4)ncnc3n2Cc2cc(C)ccn2)c(Cl)c1 [Example T238, 3-(3-chloro-4-(6-(1-methylcyclopropoxy)-9-((4-methylpyridin-2-yl)methyl)-9H-purin-8-yl)phenoxy)-N-methylpropan-1-amine] | – | 501

More lines, now with the values behind:

Structure (SMILES) | IC50 (DLD-1 cells; [2]) [µM] | IC50 (DLD-1 cells; [4]) [µM] | IC50 (DLD-1 BRCA2−/− cells; [1]) [nM] | IC50 (DLD-1 BRCA2−/− cells; [3]) [nM]
CC1(Oc2ncnc3c2nc(-c2ccc(OCCC(=O)O)cc2Cl)n3Cc2cccc(C(F)(F)F)c2)CC1 [Example T151, 3-(3-chloro-4-(6-(1-methylcyclopropoxy)-9-(3-(trifluoromethyl)benzyl)-9H-purin-8-yl)phenoxy)propanoic acid] | > 10 | – | 398 | –
CC1(Oc2ncnc3c2nc(-c2cccc(OCCCC(=O)O)c2Cl)n3Cc2cccc(Cl)c2)CC1 [Example T157, 4-(2-chloro-3-(9-(3-chlorobenzyl)-6-(1-methylcyclopropoxy)-9H-purin-8-yl)phenoxy)butanoic acid] | > 10 | – | 31.6 | –
CC1(Oc2ncnc3c2nc(-c2cccc(OC(C)(C)C(=O)O)c2Cl)n3Cc2cccc(Cl)c2)CC1 [Example T158, 2-(2-chloro-3-(9-(3-chlorobenzyl)-6-(1-methylcyclopropoxy)-9H-purin-8-yl)phenoxy)-2-methylpropanoic acid] | > 10 | – | > 10000 | –
Cc1ccnc(Cn2c(-c3ccc(C(=O)N4CCC4)cc3Cl)nc3c(OC4(C)CC4)ncnc32)c1 [Example T169, azetidin-1-yl(3-chloro-4-(6-(1-methylcyclopropoxy)-9-((4-methylpyridin-2-yl)methyl)-9H-purin-8-yl)phenyl)methanone] | 10 | – | 631 | –
Cc1ccnc(Cn2c(-c3ccc(N4CCCC4=O)cc3Cl)nc3c(OC4(C)CC4)ncnc32)c1 [Example T171, 1-(3-chloro-4-(6-(1-methylcyclopropoxy)-9-((4-methylpyridin-2-yl)methyl)-9H-purin-8-yl)phenyl)pyrrolidin-2-one] | > 10 | – | 158 | –
Cc1ccnc(Cn2c(-c3ccc(N4CC[C@@H](O)C4=O)cc3Cl)nc3c(OC4(C)CC4)ncnc32)c1 [Example T181, (R)-1-(3-chloro-4-(6-(1-methylcyclopropoxy)-9-((4-methylpyridin-2-yl)methyl)-9H-purin-8-yl)phenyl)-3-hydroxypyrrolidin-2-one] | > 10 | – | 316 | –
Cc1ccnc(Cn2c(-c3ccc(O[C@H]4CCNC4=O)cc3Cl)nc3c(OC4(C)CC4)ncnc32)c1 [Example T185, (S)-3-(3-chloro-4-(6-(1-methylcyclopropoxy)-9-((4-methylpyridin-2-yl)methyl)-9H-purin-8-yl)phenoxy)pyrrolidin-2-one] | > 10 | – | 501 | –
Cc1ccnc(Cn2c(-c3ccc(N4CC(C(N)=O)C4)cc3Cl)nc3c(OC4(C)CC4)ncnc32)c1 [Example T204, 1-(3-chloro-4-(6-(1-methylcyclopropoxy)-9-((4-methylpyridin-2-yl)methyl)-9H-purin-8-yl)phenyl)azetidine-3-carboxamide] | – | > 10 | – | 631
Cc1ccnc(Cn2c(-c3ccc(OC4CN(C(N)=O)C4)cc3Cl)nc3c(OC4(C)CC4)ncnc32)c1 [Example T205, 3-(3-chloro-4-(6-(1-methylcyclopropoxy)-9-((4-methylpyridin-2-yl)methyl)-9H-purin-8-yl)phenoxy)azetidine-1-carboxamide] | – | > 10 | – | 398
CC1(Oc2ncnc3c2nc(-c2ccc(OCCN4CCNCC4)cc2Cl)n3Cc2ncc(C(F)(F)F)s2)CC1 [Example T207, 2-((8-(2-chloro-4-(2-(piperazin-1-yl)ethoxy)phenyl)-6-(1-methylcyclopropoxy)-9H-purin-9-yl)methyl)-5-(trifluoromethyl)thiazole] | – | 10 | – | 794
Cc1ccnc(Cn2c(-c3ccc(O[C@H]4CCNC4)cc3Cl)nc3c(OC4(C)CC4)ncnc32)c1 [Example T208, (S)-8-(2-chloro-4-(pyrrolidin-3-yloxy)phenyl)-6-(1-methylcyclopropoxy)-9-((4-methylpyridin-2-yl)methyl)-9H-purine] | – | > 10 | – | 501
Cc1ccnc(Cn2c(-c3ccc(CN4CC(O)C4)cc3Cl)nc3c(OC4(C)CC4)ncnc32)c1 [Example T209, 1-(3-chloro-4-(6-(1-methylcyclopropoxy)-9-((4-methylpyridin-2-yl)methyl)-9H-purin-8-yl)benzyl)azetidin-3-ol] | – | > 10 | – | 631
Cc1cnc(Cn2c(-c3ccc(OC4CC5(CNC5)C4)cc3Cl)nc3c(OC4(C)CC4)ncnc32)s1 [Example T215, 2-((8-(4-((2-azaspiro[3.3]heptan-6-yl)oxy)-2-chlorophenyl)-6-(1-methylcyclopropoxy)-9H-purin-9-yl)methyl)-5-methylthiazole] | – | > 10 | – | 1000
Cc1ccnc(Cn2c(-c3ccc(N4CCS(=O)(=O)CC4)cc3Cl)nc3c(OC4(C)CC4)ncnc32)c1 [Example T225, 4-(3-chloro-4-(6-(1-methylcyclopropoxy)-9-((4-methylpyridin-2-yl)methyl)-9H-purin-8-yl)phenyl)thiomorpholine 1,1-dioxide] | – | > 10 | – | 631
CC1(Oc2ncnc3c2nc(-c2ccc(N4CCC(N)CC4)cc2Cl)n3Cc2cc(Cl)ccn2)CC1 [Example T230, 1-(3-chloro-4-(9-((4-chloropyridin-2-yl)methyl)-6-(1-methylcyclopropoxy)-9H-purin-8-yl)phenyl)piperidin-4-amine] | – | > 10 | – | 398
Cc1cnc(Cn2c(-c3ccc(OCCN4CCCC4)cc3Cl)nc3c(OC4(C)CC4)ncnc32)s1 [Example T239, 2-((8-(2-chloro-4-(2-(pyrrolidin-1-yl)ethoxy)phenyl)-6-(1-methylcyclopropoxy)-9H-purin-9-yl)methyl)-5-methylthiazole] | – | > 10 | – | 251
